From US4062816A, “D-Ala^5 -somatostatin and intermediates thereto” (Eli Lilly and Company, priority 1976, dated 1977)

How the values were obtained:
[1] = system: glucagon; assay: inhibition of glucagon secretion in dogs during L-alanine infusion; assay type: in vivo, mongrel dogs; conditions: intravenous infusion 0.20-0.30 μg/kg/minute (D-Ala5-somatostatin 0.230 μg/kg/min.); fasted dogs
Method: (§1) The product from Example 4 also was tested for its activity in inhibiting glucagon and insulin secretion. Normal mongrel dogs of either sex were fasted overnight. Control blood samples were obtained, and then an intravenous infusion of saline, somatostatin, or D-Ala^5 -somatostatinwas started. After 30 minutes, L-alanine additionally was administered intravenously for a period of 15 minutes. The infusion of saline, somatostatin, of D-Ala^5 -somatostatin was continued for 15 minutes after completion of the alanine infusion. The total dose of somatostatin or D-Ala^5 -somatostatin which was infused is 200-500 μg/dog (0.20-0.30 μg/kg/ minute), and the total dose of L-alanine infused was 1 mmol.kg./15 minutes.

[2] = system: insulin; assay: inhibition of insulin secretion in dogs during L-alanine infusion; assay type: in vivo, mongrel dogs; conditions: intravenous infusion 0.20-0.30 μg/kg/minute (D-Ala5-somatostatin 0.230 μg/kg/min.); fasted dogs
Method: as §1

[3] = system: growth hormone; assay: inhibition of the release of growth hormone in pentobarbital-stimulated rats; assay type: in vivo, Spraque-Dawley rats; conditions: 50 μg./rat, subcutaneously; sodium pentobarbital-stimulated; relative to saline control group
Method: The product from Example 4 was tested for its activity in inhibiting the release of growth hormone. The procedure which was employed is carried out using mature male Spraque-Dawley rats (Laboratory Supply Company, Indianapolis, Ind.). The test is a modification of the method of P. Brazeau, W. Vale, and R. Guillemen, Endocrinology, 94 184 (1974). In this assay, three groups of eight rats each were employed. First, sodium pentobarbital was administered to all […] rats to stimulate growth hormone secretion. One of the groups of eight rats is the control group and received only saline. A second of the groups received somatostatin at 50 μg./rat, subcutaneously. The third group received D-Ala^5 -somatostatin at 50 μg./rat, subcutaneously. The degree of inhibition of serum growth hormone concentration then was determined with respect to the control group, and the relative activities of D-Ala^5 -somatostatin and somatostatin itself were compared. At a dose level of 50 μg./rat, D-Ala^5 -somatostatin inhibited the increase in serum growth hormone concentration by 40-50 percent, while somatostatin itself produced a 90 percent inhibition.

C[C@H](N)C(=O)NCC(=O)N[C@H]1CSSC[C@@H](C(=O)O)NC(=O)[C@H](CO)NC(=O)[C@H]([C@@H](C)O)NC(=O)[C@H](Cc2ccccc2)NC(=O)[C@H]([C@@H](C)O)NC(=O)[C@H](CCCCN)NC(=O)[C@H](Cc2c[nH]c3ccccc23)NC(=O)[C@H](Cc2ccccc2)NC(=O)[C@H](Cc2ccccc2)NC(=O)[C@@H](C)NC(=O)[C@H](CCCCN)NC1=O [D-Ala^5 -somatostatin] was tested, and the “effect on the increase in serum glucagon concentration produced by L-alanine” value [1] was “did not affect the increase in serum glucagon concentration”, the “effect on basal serum insulin concentration (before alanine infusion)” value [2] was “caused a brief increase in insulin concentration” and the “effect on the increase in insulin concentration/secretion produced by L-alanine” value [2] was “did not inhibit the increase in insulin secretion”. For the same compound, the “inhibition of the increase in serum growth hormone concentration” value [3] was 40-50%.
